settings: bacteroides stercoris, 12 h, 2 µM
Description: The drug is tested on Bacteroides stercoris strain: ATCC43183 for biotransformation. The drug concentrations were measured before and after a 12-h incubation by liquid-chromatography-coupled mass spectrometry (LC–MS)

SMILES | Bacterial Biotransformation
CC#C[C@]1(O)CC[C@H]2[C@@H]3CCC4=CC(=O)CCC4=C3[C@@H](c3ccc(N(C)C)cc3)C[C@@]21C [MIFEPRISTONE] | Compound metabolized
CN(C)C(=O)Oc1cc(OC(=O)N(C)C)cc(C(O)CNC(C)(C)C)c1 (centres undefined) [BAMBUTEROL] | Compound NOT metabolized
CCCc1nc(C(C)(C)O)c(C(=O)OCc2oc(=O)oc2C)n1Cc1ccc(-c2ccccc2-c2nnn[nH]2)cc1 [OLMESARTAN MEDOXOMIL] | Compound metabolized
CN1CCN(CC/C=C2/c3ccccc3Sc3ccc(S(=O)(=O)N(C)C)cc32)CC1 [THIOTHIXENE] | Compound metabolized
CNCCC(Oc1ccc(C(F)(F)F)cc1)c1ccccc1 (centres undefined) [FLUOXETINE] | Compound metabolized
CC[C@H](C)C(=O)O[C@H]1C[C@@H](C)C=C2C=C[C@H](C)[C@H](CC[C@@H]3C[C@@H](O)CC(=O)O3)[C@H]21 [LOVASTATIN] | Compound NOT metabolized
COc1ccc2[nH]c([S+]([O-])Cc3ncc(C)c(OC)c3C)nc2n1 (centres undefined) [TENATOPRAZOLE] | Compound metabolized
CC(C)(C)NCC(O)c1cc(Cl)c(N)c(Cl)c1 (centres undefined) [CLENBUTEROL] | Compound NOT metabolized
CCc1oc2ccccc2c1C(=O)c1cc(Br)c(O)c(Br)c1 [BENZBROMARONE] | Compound NOT metabolized

settings: bacteroides fragilis, 12 h, 2 µM
Description: The drug is tested on Bacteroides fragilis strain: DS-208 for biotransformation. The drug concentrations were measured before and after a 12-h incubation by liquid-chromatography-coupled mass spectrometry (LC–MS)

SMILES | Bacterial Biotransformation
CN1C(=O)CCS(=O)(=O)C1c1ccc(Cl)cc1 (centres undefined) [CHLORMEZANONE] | Compound NOT metabolized
CC#C[C@]1(O)CC[C@H]2[C@@H]3CCC4=CC(=O)CCC4=C3[C@@H](c3ccc(N(C)C)cc3)C[C@@]21C [MIFEPRISTONE] | Compound NOT metabolized
CN(C)C(=O)Oc1cc(OC(=O)N(C)C)cc(C(O)CNC(C)(C)C)c1 (centres undefined) [BAMBUTEROL] | Compound NOT metabolized
CCCc1nc(C(C)(C)O)c(C(=O)OCc2oc(=O)oc2C)n1Cc1ccc(-c2ccccc2-c2nnn[nH]2)cc1 [OLMESARTAN MEDOXOMIL] | Compound metabolized
CN1CCN(CC/C=C2/c3ccccc3Sc3ccc(S(=O)(=O)N(C)C)cc32)CC1 [THIOTHIXENE] | Compound NOT metabolized
CNCCC(Oc1ccc(C(F)(F)F)cc1)c1ccccc1 (centres undefined) [FLUOXETINE] | Compound metabolized
COc1ccc2[nH]c([S+]([O-])Cc3ncc(C)c(OC)c3C)nc2n1 (centres undefined) [TENATOPRAZOLE] | Compound metabolized
CC(C)(C)NCC(O)c1cc(Cl)c(N)c(Cl)c1 (centres undefined) [CLENBUTEROL] | Compound NOT metabolized
CCc1oc2ccccc2c1C(=O)c1cc(Br)c(O)c(Br)c1 [BENZBROMARONE] | Compound NOT metabolized

settings: enterocloster bolteae, 12 h, 2 µM
Description: The drug is tested on Clostridium bolteae strain: ATCCBAA-613 for biotransformation. The drug concentrations were measured before and after a 12-h incubation by liquid-chromatography-coupled mass spectrometry (LC–MS)

SMILES | Bacterial Biotransformation
CN1C(=O)CCS(=O)(=O)C1c1ccc(Cl)cc1 (centres undefined) [CHLORMEZANONE] | Compound NOT metabolized
CC#C[C@]1(O)CC[C@H]2[C@@H]3CCC4=CC(=O)CCC4=C3[C@@H](c3ccc(N(C)C)cc3)C[C@@]21C [MIFEPRISTONE] | Compound NOT metabolized
CN(C)C(=O)Oc1cc(OC(=O)N(C)C)cc(C(O)CNC(C)(C)C)c1 (centres undefined) [BAMBUTEROL] | Compound NOT metabolized
CCCc1nc(C(C)(C)O)c(C(=O)OCc2oc(=O)oc2C)n1Cc1ccc(-c2ccccc2-c2nnn[nH]2)cc1 [OLMESARTAN MEDOXOMIL] | Compound metabolized
CN1CCN(CC/C=C2/c3ccccc3Sc3ccc(S(=O)(=O)N(C)C)cc32)CC1 [THIOTHIXENE] | Compound metabolized
CNCCC(Oc1ccc(C(F)(F)F)cc1)c1ccccc1 (centres undefined) [FLUOXETINE] | Compound metabolized
CC[C@H](C)C(=O)O[C@H]1C[C@@H](C)C=C2C=C[C@H](C)[C@H](CC[C@@H]3C[C@@H](O)CC(=O)O3)[C@H]21 [LOVASTATIN] | Compound NOT metabolized
CC(C)(C)NCC(O)c1cc(Cl)c(N)c(Cl)c1 (centres undefined) [CLENBUTEROL] | Compound NOT metabolized

assay: The drug is tested on Clostridium sp. strain: fecal isolate for biotransformation. The drug concentrations were measured before and after a 12-h incubation by liquid-chromatography-coupled mass spectrometry (LC–MS); settings: 2 µM

SMILES | Bacterial Biotransformation
CN1C(=O)CCS(=O)(=O)C1c1ccc(Cl)cc1 (centres undefined) [CHLORMEZANONE] | Compound metabolized
CC#C[C@]1(O)CC[C@H]2[C@@H]3CCC4=CC(=O)CCC4=C3[C@@H](c3ccc(N(C)C)cc3)C[C@@]21C [MIFEPRISTONE] | Compound metabolized
CN(C)C(=O)Oc1cc(OC(=O)N(C)C)cc(C(O)CNC(C)(C)C)c1 (centres undefined) [BAMBUTEROL] | Compound NOT metabolized
CCCc1nc(C(C)(C)O)c(C(=O)OCc2oc(=O)oc2C)n1Cc1ccc(-c2ccccc2-c2nnn[nH]2)cc1 [OLMESARTAN MEDOXOMIL] | Compound metabolized
CN1CCN(CC/C=C2/c3ccccc3Sc3ccc(S(=O)(=O)N(C)C)cc32)CC1 [THIOTHIXENE] | Compound metabolized
CNCCC(Oc1ccc(C(F)(F)F)cc1)c1ccccc1 (centres undefined) [FLUOXETINE] | Compound metabolized
CC[C@H](C)C(=O)O[C@H]1C[C@@H](C)C=C2C=C[C@H](C)[C@H](CC[C@@H]3C[C@@H](O)CC(=O)O3)[C@H]21 [LOVASTATIN] | Compound metabolized
COc1ccc2[nH]c([S+]([O-])Cc3ncc(C)c(OC)c3C)nc2n1 (centres undefined) [TENATOPRAZOLE] | Compound metabolized
CC(C)(C)NCC(O)c1cc(Cl)c(N)c(Cl)c1 (centres undefined) [CLENBUTEROL] | Compound NOT metabolized
CCc1oc2ccccc2c1C(=O)c1cc(Br)c(O)c(Br)c1 [BENZBROMARONE] | Compound NOT metabolized

assay: The drug is tested on Clostridium symbiosum strain: ATCC14940 for biotransformation. The drug concentrations were measured before and after a 12-h incubation by liquid-chromatography-coupled mass spectrometry (LC–MS); settings: 2 µM

SMILES | Bacterial Biotransformation
CN1C(=O)CCS(=O)(=O)C1c1ccc(Cl)cc1 (centres undefined) [CHLORMEZANONE] | Compound NOT metabolized
CC#C[C@]1(O)CC[C@H]2[C@@H]3CCC4=CC(=O)CCC4=C3[C@@H](c3ccc(N(C)C)cc3)C[C@@]21C [MIFEPRISTONE] | Compound NOT metabolized
CN(C)C(=O)Oc1cc(OC(=O)N(C)C)cc(C(O)CNC(C)(C)C)c1 (centres undefined) [BAMBUTEROL] | Compound NOT metabolized
CCCc1nc(C(C)(C)O)c(C(=O)OCc2oc(=O)oc2C)n1Cc1ccc(-c2ccccc2-c2nnn[nH]2)cc1 [OLMESARTAN MEDOXOMIL] | Compound metabolized
CN1CCN(CC/C=C2/c3ccccc3Sc3ccc(S(=O)(=O)N(C)C)cc32)CC1 [THIOTHIXENE] | Compound NOT metabolized
CC[C@H](C)C(=O)O[C@H]1C[C@@H](C)C=C2C=C[C@H](C)[C@H](CC[C@@H]3C[C@@H](O)CC(=O)O3)[C@H]21 [LOVASTATIN] | Compound NOT metabolized
CC(C)(C)NCC(O)c1cc(Cl)c(N)c(Cl)c1 (centres undefined) [CLENBUTEROL] | Compound NOT metabolized
CCc1oc2ccccc2c1C(=O)c1cc(Br)c(O)c(Br)c1 [BENZBROMARONE] | Compound NOT metabolized

assay: The drug is tested on Eggerthella lenta strain: ATCC25559 for biotransformation. The drug concentrations were measured before and after a 12-h incubation by liquid-chromatography-coupled mass spectrometry (LC–MS); settings: 2 µM

SMILES | Bacterial Biotransformation
CN1C(=O)CCS(=O)(=O)C1c1ccc(Cl)cc1 (centres undefined) [CHLORMEZANONE] | Compound NOT metabolized
CC#C[C@]1(O)CC[C@H]2[C@@H]3CCC4=CC(=O)CCC4=C3[C@@H](c3ccc(N(C)C)cc3)C[C@@]21C [MIFEPRISTONE] | Compound NOT metabolized
CN(C)C(=O)Oc1cc(OC(=O)N(C)C)cc(C(O)CNC(C)(C)C)c1 (centres undefined) [BAMBUTEROL] | Compound NOT metabolized
CCCc1nc(C(C)(C)O)c(C(=O)OCc2oc(=O)oc2C)n1Cc1ccc(-c2ccccc2-c2nnn[nH]2)cc1 [OLMESARTAN MEDOXOMIL] | Compound metabolized
CN1CCN(CC/C=C2/c3ccccc3Sc3ccc(S(=O)(=O)N(C)C)cc32)CC1 [THIOTHIXENE] | Compound NOT metabolized
CNCCC(Oc1ccc(C(F)(F)F)cc1)c1ccccc1 (centres undefined) [FLUOXETINE] | Compound NOT metabolized
CC[C@H](C)C(=O)O[C@H]1C[C@@H](C)C=C2C=C[C@H](C)[C@H](CC[C@@H]3C[C@@H](O)CC(=O)O3)[C@H]21 [LOVASTATIN] | Compound NOT metabolized
COc1ccc2[nH]c([S+]([O-])Cc3ncc(C)c(OC)c3C)nc2n1 (centres undefined) [TENATOPRAZOLE] | Compound metabolized
CC(C)(C)NCC(O)c1cc(Cl)c(N)c(Cl)c1 (centres undefined) [CLENBUTEROL] | Compound NOT metabolized
CCc1oc2ccccc2c1C(=O)c1cc(Br)c(O)c(Br)c1 [BENZBROMARONE] | Compound NOT metabolized

assay: The drug is tested on Bifidobacterium ruminantium strain: fecal isolate for biotransformation. The drug concentrations were measured before and after a 12-h incubation by liquid-chromatography-coupled mass spectrometry (LC–MS); settings: 2 µM

SMILES | Bacterial Biotransformation
CN1C(=O)CCS(=O)(=O)C1c1ccc(Cl)cc1 (centres undefined) [CHLORMEZANONE] | Compound metabolized
CNCCC(Oc1ccc(C(F)(F)F)cc1)c1ccccc1 (centres undefined) [FLUOXETINE] | Compound metabolized
CC[C@H](C)C(=O)O[C@H]1C[C@@H](C)C=C2C=C[C@H](C)[C@H](CC[C@@H]3C[C@@H](O)CC(=O)O3)[C@H]21 [LOVASTATIN] | Compound NOT metabolized
COc1ccc2[nH]c([S+]([O-])Cc3ncc(C)c(OC)c3C)nc2n1 (centres undefined) [TENATOPRAZOLE] | Compound metabolized
CCc1oc2ccccc2c1C(=O)c1cc(Br)c(O)c(Br)c1 [BENZBROMARONE] | Compound NOT metabolized
